Assay results taken from the NIST ThermoML archive (doi:10.1021/je049842u).

Columns and labels:
[1] = compressibility factor (dimensionless); details: Gas, Burnett expansion method
[2] = Liquid, Closed cell (Static) method

[N-]=[N+]=O [nitrous oxide]
[1]
Details	compressibility factor
335.16 K, 175.4 kPa	0.9949
335.16 K, 261.7 kPa	0.9913
335.16 K, 389.8 kPa	0.9864
335.16 K, 579.2 kPa	0.9792
335.16 K, 857.6 kPa	0.9686
335.16 K, 1263.2 kPa	0.9531
335.16 K, 1845.9 kPa	0.9304
335.16 K, 2665.8 kPa	0.8977
335.16 K, 3777.8 kPa	0.8498
335.18 K, 188.5 kPa	0.9942
335.18 K, 281 kPa	0.9902
335.18 K, 418.3 kPa	0.9847
335.18 K, 621.3 kPa	0.9772
335.18 K, 919.2 kPa	0.9658
335.18 K, 1352.3 kPa	0.9492
335.18 K, 1972.3 kPa	0.9248
335.18 K, 2839.6 kPa	0.8895
335.18 K, 4008.4 kPa	0.8389
345.51 K, 185.8 kPa	0.9943
345.51 K, 277.2 kPa	0.991
345.51 K, 413 kPa	0.9863
345.51 K, 613.8 kPa	0.9794
345.51 K, 909.5 kPa	0.9693
345.51 K, 1340.3 kPa	0.9543
345.51 K, 1960.2 kPa	0.9324
345.51 K, 2834.5 kPa	0.9008
345.51 K, 4029 kPa	0.8553
345.58 K, 184.6 kPa	0.9943
345.58 K, 275.5 kPa	0.9911
345.58 K, 410.4 kPa	0.9865
345.58 K, 610.1 kPa	0.9797
345.58 K, 903.9 kPa	0.9697
345.58 K, 1332.3 kPa	0.9548
345.58 K, 1949.3 kPa	0.9332
345.58 K, 2819.4 kPa	0.9017
345.58 K, 4008.9 kPa	0.8565
364.36 K, 207.6 kPa	0.9928
364.36 K, 241.7 kPa	0.9925
364.36 K, 309.9 kPa	0.9907
364.36 K, 360.3 kPa	0.9889
364.36 K, 462 kPa	0.9871
364.36 K, 536.5 kPa	0.9843
364.36 K, 687.1 kPa	0.9812
364.36 K, 797.5 kPa	0.9779
364.36 K, 1018.5 kPa	0.9723
364.36 K, 1179.8 kPa	0.967
364.36 K, 1502.7 kPa	0.9588
364.36 K, 1737 kPa	0.9517
364.36 K, 2201.5 kPa	0.9389
364.36 K, 2535.6 kPa	0.9285
364.36 K, 3191.1 kPa	0.9097
364.36 K, 3655.3 kPa	0.8947
364.36 K, 4555 kPa	0.8679
364.36 K, 5179.9 kPa	0.8475

[2]
Details	vapor or sublimation pressure [kPa]
219.24 K	554.7
222.28 K	626.3
223.31 K	652.8
227.32 K	759.6
227.36 K	760.6
232.37 K	912.1
232.43 K	915.4
237.49 K	1092.9
242.57 K	1294.7
247.65 K	1521.9
252.73 K	1777
257.8 K	2061.8
257.87 K	2065.4
262.9 K	2379
262.95 K	2381.8
267.98 K	2730.6
268.03 K	2734
273.08 K	3119.9
